pIC50, pKi: −log10 of the molar value.
How the values were obtained:
[1] = Drug degradation in MES buffer at pH 6 after 1 hr by NMR analysis; type: physicochemical; conditions: read-out: Drug degradation
[2] = Drug degradation in sodium phosphate buffer at pH 8 after 24 hrs by NMR analysis; type: physicochemical; conditions: read-out: Drug degradation
[3] = Drug degradation in sodium phosphate buffer at pH 8 after 30 mins by NMR analysis; type: physicochemical; conditions: read-out: Drug degradation
[4] = target: T1, Acetylcholinesterase (Homo sapiens, UniProt P22303); assay: Inhibition of human AChE at pH 8
T1 sequence (P22303 whole entry): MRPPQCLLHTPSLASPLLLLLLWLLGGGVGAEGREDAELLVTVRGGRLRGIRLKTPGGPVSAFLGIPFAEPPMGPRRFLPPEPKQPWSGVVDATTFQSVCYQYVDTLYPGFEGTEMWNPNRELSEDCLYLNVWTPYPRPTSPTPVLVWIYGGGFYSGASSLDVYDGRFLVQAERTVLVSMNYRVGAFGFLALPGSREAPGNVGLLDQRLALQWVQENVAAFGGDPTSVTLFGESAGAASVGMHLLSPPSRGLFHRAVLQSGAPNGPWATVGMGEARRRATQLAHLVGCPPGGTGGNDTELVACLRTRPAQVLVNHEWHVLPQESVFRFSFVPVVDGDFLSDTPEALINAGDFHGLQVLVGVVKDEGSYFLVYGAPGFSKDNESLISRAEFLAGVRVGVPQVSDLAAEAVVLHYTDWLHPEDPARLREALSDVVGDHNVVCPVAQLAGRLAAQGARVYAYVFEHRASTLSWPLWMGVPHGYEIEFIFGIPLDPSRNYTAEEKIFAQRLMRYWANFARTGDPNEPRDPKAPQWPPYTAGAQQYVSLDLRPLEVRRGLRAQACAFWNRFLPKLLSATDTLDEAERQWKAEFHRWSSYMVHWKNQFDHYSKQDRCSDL

[5] = Drug degradation in MES buffer at pH 6.5 after 30 mins by NMR analysis; type: physicochemical; conditions: read-out: Drug degradation
[6] = Drug degradation in sodium phosphate buffer at pH 7 after 24 hrs by NMR analysis; type: physicochemical; conditions: read-out: Drug degradation
[7] = Drug degradation in sodium phosphate buffer at pH 7 after 1 hr by NMR analysis; type: physicochemical; conditions: read-out: Drug degradation
[8] = Drug degradation in MES buffer at pH 6.5 after 1 hr by NMR analysis; type: physicochemical; conditions: read-out: Drug degradation
[9] = Drug degradation in sodium phosphate buffer at pH 8 after 1 hr by NMR analysis; type: physicochemical; conditions: read-out: Drug degradation
[10] = target: T1, Acetylcholinesterase; assay: Inhibition of human AChE at pH 6
[11] = Drug degradation in MES buffer at pH 6 after 30 mins by NMR analysis; type: physicochemical; conditions: read-out: Drug degradation
[12] = Drug degradation in sodium phosphate buffer at pH 7 after 30 mins by NMR analysis; type: physicochemical; conditions: read-out: Drug degradation
[13] = Drug degradation in MES buffer at pH 6 after 24 hrs by NMR analysis; type: physicochemical; conditions: read-out: Drug degradation
[14] = target: T1, Acetylcholinesterase; assay: Irreversible inhibition of AChE (unknown origin)
[15] = target: Acetylcholinesterase (Musca domestica, UniProt Q7YWJ9); assay: Inhibition of housefly CSMA AChE
Sequence of Acetylcholinesterase (Musca domestica, UniProt Q7YWJ9) (Q7YWJ9 whole entry): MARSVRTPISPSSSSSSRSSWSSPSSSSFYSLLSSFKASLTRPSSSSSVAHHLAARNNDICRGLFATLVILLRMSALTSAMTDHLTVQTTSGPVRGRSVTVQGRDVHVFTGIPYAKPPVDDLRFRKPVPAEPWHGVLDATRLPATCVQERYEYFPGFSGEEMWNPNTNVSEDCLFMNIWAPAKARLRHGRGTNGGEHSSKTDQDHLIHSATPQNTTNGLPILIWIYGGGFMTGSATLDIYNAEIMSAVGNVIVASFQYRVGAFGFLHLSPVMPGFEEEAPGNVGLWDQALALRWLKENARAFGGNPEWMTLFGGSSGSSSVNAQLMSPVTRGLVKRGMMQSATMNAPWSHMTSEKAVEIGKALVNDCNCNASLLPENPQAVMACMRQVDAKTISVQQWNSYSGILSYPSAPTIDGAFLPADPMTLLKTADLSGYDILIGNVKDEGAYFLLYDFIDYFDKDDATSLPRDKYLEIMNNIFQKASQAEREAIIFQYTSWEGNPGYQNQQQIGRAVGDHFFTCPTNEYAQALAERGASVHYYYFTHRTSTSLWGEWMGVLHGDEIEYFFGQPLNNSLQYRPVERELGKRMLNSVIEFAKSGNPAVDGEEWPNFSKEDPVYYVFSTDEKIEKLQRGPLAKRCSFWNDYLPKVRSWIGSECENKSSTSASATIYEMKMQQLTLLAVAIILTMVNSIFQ

[16] = target: T1, Acetylcholinesterase; assay: Inhibition of AChE (unknown origin)

Structure (SMILES) | degraded at 24 h [2] | degraded at 0.5 h [3] | pIC50 [4] | degraded at 1 h [9] | pIC50 [10] | also measured
CCOP1(=O)OC(C)=C(C(=O)OC)CCC1(F)F (configuration not stated) | 100% | 5% | < 4.00 | 50% | < 4.00 | degraded at 1 h [1]: 4.1%; degraded at 0.5 h [5]: 2.8%; degraded at 24 h [6]: 100%; degraded at 1 h [7]: 34%; degraded at 1 h [8]: 7.2%; degraded at 0.5 h [11]: 0.5%; degraded at 0.5 h [12]: 20%; degraded at 24 h [13]: 65%
CCOP1(=O)CCCC(C(=O)OC)=C(C)O1 (configuration not stated) |  |  | 5.12 |  | 5.05 | 
COP1(=O)OCCC(C(=O)OC(C)(C)C)=C(C)O1 (configuration not stated) |  |  | 5.23 |  | 5.21 | 
COC(=O)C1=C(C)OP(=O)(OC)OCC1 (configuration not stated) | 57% | 0% | 5.99 | 4% | 5.98 | 
COC(=O)C1=C(C)OP(=O)(OC)CCC1 (configuration not stated) | 9.6% | 2% | 4.92 | 2% | 4.59 | 
COP1(=O)OC[C@@H]2COC(=O)C2=C(C)O1 (single isomer, unassigned) |  |  | 7.46 |  |  | 
COP1(=O)OC[C@H]2COC(=O)C2=C(C)O1 (single isomer, unassigned) [CYCLOPHOSTIN] |  |  | 7.40 |  |  | pKi [14]: 6.85; pIC50 [15]: 9.12; pIC50 [16]: 7.35

From ChEMBL document CHEMBL3734729, “Synthesis and comparison of the biological activity of monocyclic phosphonate, difluorophosphonate and phosphate analogs of the natural AChE inhibitor cyclophostin” (Bioorg Med Chem, 2015)
